Columns and labels:
[1] = molecular target: T1, TLR4 (Mus musculus, UniProt Q9JHF9+Q9QUK6)
T1 sequence (Q9QUK6 26-835): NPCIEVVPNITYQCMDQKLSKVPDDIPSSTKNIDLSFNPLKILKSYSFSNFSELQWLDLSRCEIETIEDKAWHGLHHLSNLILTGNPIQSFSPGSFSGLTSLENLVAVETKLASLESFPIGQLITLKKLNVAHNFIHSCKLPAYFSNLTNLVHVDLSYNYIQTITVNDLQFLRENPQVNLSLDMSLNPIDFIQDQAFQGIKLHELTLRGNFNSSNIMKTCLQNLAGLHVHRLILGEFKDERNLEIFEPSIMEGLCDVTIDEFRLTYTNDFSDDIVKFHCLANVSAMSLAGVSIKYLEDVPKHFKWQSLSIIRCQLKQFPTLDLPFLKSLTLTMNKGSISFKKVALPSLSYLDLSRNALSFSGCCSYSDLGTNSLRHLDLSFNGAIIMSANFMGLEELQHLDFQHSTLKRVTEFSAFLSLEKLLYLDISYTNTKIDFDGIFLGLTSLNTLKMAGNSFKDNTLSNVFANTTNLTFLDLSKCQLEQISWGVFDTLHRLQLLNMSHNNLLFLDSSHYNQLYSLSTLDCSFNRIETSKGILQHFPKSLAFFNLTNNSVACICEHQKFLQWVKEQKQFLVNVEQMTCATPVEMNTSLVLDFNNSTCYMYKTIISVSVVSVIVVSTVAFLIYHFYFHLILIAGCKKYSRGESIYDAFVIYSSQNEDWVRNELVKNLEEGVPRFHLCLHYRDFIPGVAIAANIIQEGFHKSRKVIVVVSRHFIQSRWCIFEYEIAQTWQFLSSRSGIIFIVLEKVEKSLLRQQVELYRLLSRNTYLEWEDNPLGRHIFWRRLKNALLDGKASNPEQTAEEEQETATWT
T1 sequence (Q9JHF9 19-160): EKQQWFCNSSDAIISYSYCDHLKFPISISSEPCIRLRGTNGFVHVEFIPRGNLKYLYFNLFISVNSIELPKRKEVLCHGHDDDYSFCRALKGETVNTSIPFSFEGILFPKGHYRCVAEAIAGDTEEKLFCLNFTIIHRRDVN

[2] = Hargreaves test for analgesia; settings: rat, intrathecal morphine 15 μg plus vehicle, P < 0.05

| SMILES | ratio of cell viability IC50 (cytotoxicity) to TLR4 antagonist activity ([1]; IC50 of viability / IC50 of NO) | TLR4 antagonist activity, times better than (+)-naltrexone ([1]; relative to (+)-naltrexone 1a, NO assay in BV-2 cells) | analgesia to radiant heat compared to baseline [2] |
| --- | --- | --- | --- |
| O=C1CC[C@]2(O)[C@@H]3Cc4ccc(O)c5c4[C@]2(CCN3CCc2ccccc2)[C@@H]1O5 [1j, (4S,4aR,7aS,12bR)-4a,9-Dihydroxy-3-phenethyl-2,3,4,4a,5,6-hexahydro-1H-4,12-methanobenzofuro[3,2-e]isoquinolin-7(7aH)-one] | ~ 100 | ~ 75 fold | – |
| CN1CC[C@]23c4c5ccc(O)c4O[C@H]2[C@@H](O)C=C[C@H]3[C@H]1C5 [morphine] | – | – | produced significant analgesia to radiant heat |
